Values after ≈ are worked out from the molar mass of the structure shown.

The nature of series [1]: Approximate solubility of crystalline form C in dissolution media by visual observation. The format is physicochemical. The following applies: thermodynamic from solid, 37°C per table caption (method: 25°C). The protocol: About 4 mg of crystalline form C was weighed into a 4 mL or 8 mL glass vial, and 4 to 9 mL of dissolution medium was added to dissolve the drug substance at 25°C. The approximate solubility was determined by visual observation.
The solvents and solubility results are shown in Table 11 (solubility of crystalline form C at 37°C).

Another series concerns Aβ plaques. Briefly: Bielschowsky silver staining of brain sections. The format is in vivo, mice. The conditions noted are these: 1 mg/kg orally, cerebral cortex, vs vehicle control. How it is done: To evaluate the efficacy of crystalline form C of the present disclosure in inhibiting amyloid-beta protein accumulation, mouse proteomic profiling array analysis and Bielschowsky silver staining were performed. […]
Bielschowski silver staining (Bielschowski Silver Staining Kit, ab245877, abcam, Cambridge, UK) was performed according to the manufacturer's protocol. 40 µm-thick brain sections of APP/PS1 mice were incubated in a warm 20% silver nitrate solution at 40°C for 15 minutes, followed by four washes with distilled water and three rinses with water for 3 minutes each. The slides were incubated in an ammoniacal silver solution at 40°C for 10 minutes, and then placed in a developer solution (containing 8 drops of 20% formalin, 8 drops of citric acid, and 4 drops of nitric acid in 50 mL H2O) for a few seconds until the tissue sections turned yellow/brown. Subsequently, the slides were placed in aqueous ammonia for 30 seconds. The sections were washed three times with water for 2 minutes each and incubated in a 5% thiosulfate solution for 2 minutes. […]
Statistical analysis was performed using GraphPad Prism 9.5.0 software (San Diego, CA, USA). […] All data are expressed as mean ± SEM.

A short description of series [2]: Parallel artificial membrane permeability assay (PAMPA) for BBB permeability. The format is in vitro ADME. How it is done: • PAMPA: PMBBB-096 Kit • Assay format: 96-well plate • Reference substance: Imipramine (H) (10 µM) • Test substance concentration: 10 µM • Number of replicates: 3 • Reaction time: 6 hours at 25°C on a shaker (75 - 80 rpm) • Analytical method: LC-MS/MS • Data processing: Pe (cm/s)
The test compounds (crystalline forms A and C) were dissolved in DMSO at a concentration of 10 mM […] to prepare standard solutions. Next, dried brain lipids were resuspended in 600 µL dodecane to prepare a BBB lipid solution in dodecane. Pipetting up and down was repeated (~100 times) until all dried brain lipids were dissolved (vortexing or sonication may be helpful). A 10 µM reaction solution in PBS containing 5% DMSO was prepared.
The experiments were conducted in a 96-well plate using the prepared reaction solution of each test compound and the BBB lipid solution according to the following assay procedure. • 1. 500 µL of a 500 µM test compound solution (prepared by mixing 25 µL of a 10 mM test compound + 475 µL of PBS (pH 7.2) in DMSO) was prepared in a separate centrifuge tube. When a permeability control was used, it was diluted to 500 µM using PBS (prepared by mixing 25 µL of permeability control + 475 µL of PBS (pH 7.2)). • 2. For each test compound and control, a 200 µM equilibrium standard was prepared in a separate tube (by mixing 80 µL of 500 µM test compound or control with 120 µL of PBS (pH 7.2)). […] The absorbance spectrum from 200 nm to 500 nm was measured at 10 nm intervals to determine the peak absorbance of the test compounds. […] The peak absorbances of the high-permeability and low-permeability controls are 250 nm and 270 nm, respectively.
For the compounds and permeability controls, the permeability rate (Pe) was determined using the following equation: Pe = C × −ln(1−(ODA)/(ODE))cm/s [formula]
Here, ODA is the absorbance of the acceptor solution minus the blank, and ODE is the absorbance of the equilibrium standard minus the blank. For each absorbance value, the peak absorbance determined for each test was used. […]

A short description of series [3]: Dry grinding simulation experiment (XRPD). The format is physicochemical. The conditions noted are these: manually ground for 1, 3, and 5 minutes, mortar and pestle. How it is done:
About 5 mg of crystalline form C was manually ground for 1, 3, and 5 minutes using a mortar and pestle. Potential changes in form and crystallinity were evaluated by XRPD.
The XRPD results of the dry grinding simulation experiments are shown in Fig. 11, where GSE1, GSE2, and GSE3 represent experiment IDs for grinding for 1 minute, 3 minutes, and 5 minutes, respectively.

One may read the solubility as how much of the substance goes into solution per volume. As to `C[C@@H]1CC[C@H](C(=O)O)CN1C(=O)Cc1ccc(F)cc1Cl` [Crystalline form C, (3S,6R)-1-(2-(2-chloro-4-fluorophenyl)acetyl)-6-methylpiperidine-3-carboxylic acid], the solubility is 900 to 1000 µg/mL (≈ 2.87 to 3.19 mM) in series [1] (aqueous buffer, ES2: pH 4.5 acetate buffer (50mM)); 1800 to 2000 µg/mL (≈ 5.74 to 6.37 mM) in series [1] (aqueous buffer, ES3: pH 6.8 phosphate buffer (50mM)); 500 to 600 µg/mL (≈ 1.59 to 1.91 mM) in series [1] (simulated gastric fluid, ES1: pH 1.2 HCl buffer (0.2N)); 400 to 500 µg/mL (≈ 1.27 to 1.59 mM) in series [1] (simulated gastric fluid, ES4: SGF, pH 2.0); 1800 to 2000 µg/mL (≈ 5.74 to 6.37 mM) in series [1] (ES5: FaSSIF-v1, pH 6.5); 1800 to 2000 µg/mL (≈ 5.74 to 6.37 mM) in series [1] (ES6: FeSSIF-v1, pH 5.0). Besides, the solubility in series [1] (ES7: Water) fell in the range of 600 to 700 µg/mL (≈ 1.91 to 2.23 mM). For the same molecule, the “Aβ plaques (percent area)” value in the series with Aβ plaques is “reduced Aβ plaques”. In series [2] (BBB lipid membrane, PBS (pH 7.2)), the “PAMPA Pe” value is 11.79 10^-9 cm/sec. In addition, the “BBB permeability, comparison of forms” value in series [2] (PAMPA) is reported as “superior BBB permeability compared to crystalline form A”. Moreover, the “change in form and crystallinity on grinding” value in series [3] was “no change in form, but its crystallinity decreased significantly”.

Values taken from patent publication EP4772497A1, “POLYMORPHS OF NITROGEN-CONTAINING HETEROCYCLIC COMPOUNDS, AND USES THEREOF” (BNH Research Co., Ltd., priority 2023, dated 2025).
